Legend:
[1] = system: TIF1γ expression in sorted PB monocytes (CD14+ cells); assay: TIF1γ expression (RQ-PCR, immuno-blotting) in sorted PB monocytes (CD14+ cells) of a CMML patient before and after treatment with decitabine; format: in vivo, human; conditions: one CMML patient with very low Tif1γ level, after 5 cycles of decitabine; sorted PB monocytes (FIG. 7A)
Protocol: Protein extracts were prepared from purified human monocytes (CD14+ cells) for SDS-PAGE and immuno-blotting with anti-TIF1γ antibody. Equivalent loading of lanes was controlled by the use of an anti-HSC70 antibody.

[2] = system: Tif1γ-deficient Lin- cells; assay: Tif1γ-deficient Lin- cells cultured for 10 days in the presence or absence of TGF-β, myelopoiesis; format: cell-based, mouse; conditions: 10 days culture
Protocol: (§1) To answer this question, control and Tif1γ-deficient Lin^− cells were cultured for 10 days in the presence or absence of TGF-β. Cells were also treated with TGF-β inhibitor.

[3] = system: control Lin- cells; assay: control Lin- cells cultured for 10 days in the presence or absence of TGF-β or TGF-β inhibitor, formation of myeloid cells; format: cell-based, mouse; conditions: 10 days culture, compared to untreated cultures
Protocol: as §1

[4] = system: HCT116; conditions: HCT116 human tumor cell line; cited from earlier work
[5] = system: NALM-6; conditions: NALM-6 human tumor cell line; cited from earlier work

Which “TIF1γ expression, increase compared to the level measured before treatment” value [1] does the source give for Nc1ncn([C@H]2C[C@H](O)[C@@H](CO)O2)c(=O)n1 [decitabine, 4-amino-1-(2-deoxy-b-D-erythro-pentofuranosyl)-1,3,5-triazin-2(1 H)-one] here?
The value was 8 fold.

What does the source list for TGF-β?
myelopoiesis [2]: did not inhibit myelopoiesis; formation of myeloid cells [3]: limited formation of myeloid cells

With O=C(O)C(Cc1c[nH]c2ccccc12)N1C(=O)c2ccccc2C1=O (centres unmarked) [RG 108, N-phthalyl-1-tryptophan] as the compound, how does the proliferation [4] read?
The proliferation was “inhibits”.

What about the proliferation [5] of the same compound?
Its proliferation is “inhibits”.
